Test results from patent US20220062431A1, “COMPOUNDS COMPRISING STAPLED OR STITCHED PEPTIDES FOR IMPROVED DRUG DELIVERY” (Sutura Therapeutics Ltd, priority 2017, published 2022).
“Also recorded” adds a separate entry of the source. Positions of bridges follow the written chain, without caps; N, C: chain ends. Non-standard residues stand in square brackets, D forms with d. Residues, ends and D or L forms follow the SMILES beside them. *: point of attachment. FITC = O=C1OC2(c3ccc(O)cc3Oc3cc(O)ccc32)c2ccc(NC(=S)*)cc21; PEG6 = NCCOCCOCCOCCOCCOCCOCCC(=O)O; S5 = C=CCCC[C@](C)(N)C(=O)O

Columns and labels:
HeLa pLuc 705 cells [1] = assay: Flow cytometry uptake of FITC labeled CPAs (FL1+ cells, MFI); format: cell-based; conditions: 4 hours; for number of FL1 positive cells, cyclized vs non-cyclised (NC) peptide: cyclised peptide compared to its non-cyclised control
Procedure: (§1) HeLa pLuc705 cells were cultured in high glucose DMEM supplemented with 10% foetal calf serum (Sigma, UK) at 37° C. under an 8% CO2/92% air atmosphere.
(§2) HeLa pLuc705 cells were setup in 96 well plates with the appropriate dilutions of test compounds either FITC labeled peptides or FITC labeled PMO conjugates diluted into complete culture media (up to 100 µM). Cells were then then trypsinised, diluted to 4×10^5 cells per mL and 100 μL added to each well giving a final volume of 200 μL in each well. Cells were then incubated for either 4 or 24 hours at either 4 or 37° c.
(§3) Uptake of fluorescently-labelled PMO and peptides was determined by flow cytometry using an Accuri C6 flow cytometer. Cells were washed with PBS and glycine buffer then released with trypsin, and kept on ice before analysis in PBS containing 2.5% FBS. Cell fluorescence in single live cells was determined using FlowJo software after appropriate gating. Untreated cells were used to establish gating settings for the determination of the % fluorescein-positive cells, mean fluorescent intensity (MFI) was also calculated. Uptake was determined by gating cells that were able exclude cell-impermanent die (To-pro-3) indicating the ability of cells to retain membrane integrity.

HeLa pLuc 705 cells [2] = assay: % viable cells judged by gated cells compared to negative controls (flow cytometry); format: cell-based
Procedure: as §1, §2, §3

Compound | MFI compared between RCM1,5 charge variants (HeLa pLuc 705 cells [1]; at a given concentration, increase for 3+ at higher concentrations >1 μM) | FL1+ cells compared to other RCM1,5 charge variants (HeLa pLuc 705 cells [1]; over a range of concentrations) | viable cells over RCM1,5-CP8M-FITC-3+ and RCM1,5-CP8M-FITC-2+ (HeLa pLuc 705 cells [2]; 0.05 μM, 4 hours) | MFI, cyclised vs non-cyclised (NC) peptide (HeLa pLuc 705 cells [1]; 2 way ANOVA) | number of FL1 positive cells, cyclized vs non-cyclised (NC) peptide (HeLa pLuc 705 cells [1]; 2 way ANOVA) | number of FL1 positive cells, cyclized vs non-cyclised (NC) peptide (HeLa pLuc 705 cells [1]; 2 way ANOVA, listed as K1E5-CP8M-FITC) | % cell viability compared to RCM1,5-P8M-FITC-3+ (HeLa pLuc 705 cells [2]; 4 hours, all concentrations) | % of cells recovered when normalized to untreated controls (% viable cells) (HeLa pLuc 705 cells [2]; 4 hours, cyclised versus non-cyclised peptide) | cellular toxicity / impact on cell viability (HeLa pLuc 705 cells [2]; all concentrations 0.05 to 100 μM, listed as K1E5-CP8M-FITC) | increase in viability comparing RCM1,5-P8M-FITC to K1E5-P8M-FITC (HeLa pLuc 705 cells [2]; over the range of concentrations (0.05 to 100 μM))
CC[C@H](C)[C@H](NC(=O)CCOCCOCCOCCOCCOCCOCCNC(=S)Nc1ccc2c(c1)C(=O)OC21c2ccc(O)cc2Oc2cc(O)ccc21)C(=O)N[C@H](C(=O)N[C@@H](Cc1ccccc1)C(=O)N[C@@]1(C)CCCC=CCCC[C@@](C)(C(N)=O)NC(=O)[C@H](Cc2ccccc2)NC(=O)[C@H](CC(C)C)NC(=O)[C@H]([C@@H](C)CC)NC1=O)[C@@H](C)CC [RCM1,5-P8M-FITC-0+] ({FITC-PEG6}-IIF[S5]ILF[S5]-NH2; staple 4-8) | no significant difference | increase | increase | – | – | – | – | – | – | –
CC(C)C[C@@H]1NC(=O)[C@H](CCCNC(=N)N)NC(=O)[C@@H](NC(=O)[C@H](Cc2ccccc2)NC(=O)[C@H](CCCCN)NC(=O)[C@H](CCCNC(=N)N)NC(=O)CCOCCOCCOCCOCCOCCOCCNC(=S)Nc2ccc3c(c2)C(=O)OC32c3ccc(O)cc3Oc3cc(O)ccc32)CCC(=O)NCCCC[C@@H](C(N)=O)NC(=O)[C@H](Cc2ccccc2)NC1=O [K1E5-P8M-FITC] ({FITC-PEG6}-RKFERLFK-NH2; lactam 4-8; N-terminus assumed) | – | – | – | no interaction affect | no significant difference | no difference | increase | no significant difference | no adverse cellular toxicity; also recorded: do not have any negative impact | 70-99%
